Measured values from article PMC6364417, “Kinase inhibitor library screening identifies synergistic drug combinations effective in sensitive and resistant melanoma cells” (Journal of Experimental & Clinical Cancer Research : CR, 2019).

Assays:
Experiment in all cases: Kinase inhibitor library screening, PrestoBlue cell viability, 1 or 10 μM, 72 h
501Mel cells (parental) = conditions: 501Mel Parental
Description: (§1) After 72 h of treatment, cell viability was assessed using the PrestoBlue Cell Viability Reagent (ThermoFisher Scientific). Measurements were performed with the CLARIOstar Monochromator microplate reader (BMG Labtech).
(§2) Kinase inhibitor library screening. […] Each cell line was treated in its sensitive form (parental), and also as 2 resistant derivatives, which were made resistant to either Vemurafenib (XP) or Dabrafenib (GP). Drugs were added at 2 different concentrations, 1 and 10 μM, for 72 h and cell viability was assessed using the PrestoBlue Cell Viability assay. Results are depicted as % viability compared to untreated cells. Each cell line was analyzed at least in duplicate. […] (XLSX 95 kb)

[1] = tested on: 501Mel-GP cells (Dabrafenib-resistant); conditions: 501Mel GP
Description: as §1, §2

[2] = tested on: 501Mel-XP cells (Vemurafenib-resistant); conditions: 501Mel XP
Description: as §1, §2

A375 cells (parental) = conditions: A375 Parental, 72 h
Description: as §1, §2

[3] = tested on: A375-GP cells (Dabrafenib-resistant); conditions: A375 GP; for cell viability (kinase inhibitor library screening): in %
Description: as §1, §2

[4] = tested on: A375-XP cells (Vemurafenib-resistant); conditions: A375 XP
Description: as §1, §2

IGR37 cells (parental) = conditions: IGR37 Parental
Description: as §1, §2

[5] = tested on: IGR37-GP cells (Dabrafenib-resistant); conditions: IGR37 GP
Description: as §1, §2

[6] = tested on: IGR37-XP cells (Vemurafenib-resistant); conditions: IGR37 XP
Description: as §1, §2

In the case of `Cn1cnc(N)c2ncnc1-2` [3-Methyladenine], the “Cell viability in kinase inhibitor library screening, 501Mel Parental, 1μΜ” value (501Mel cells (parental); 1μΜ, 72 h, in %) is reported as 107.2, the “Cell viability in kinase inhibitor library screening, 501Mel Parental, 10μΜ” value (501Mel cells (parental); 10μΜ, 72 h, in %) is reported as 107.1 and the “Cell viability in kinase inhibitor library screening, 501Mel GP, 10μΜ” value ([1]; 10μΜ, 72 h, in %) is reported as 93.3. The “Cell viability in kinase inhibitor library screening, 501Mel XP, 10μΜ” value ([2]; 10μΜ, 72 h, in %) was 87.7, the “Cell viability in kinase inhibitor library screening, A375 Parental, 10μΜ” value (A375 cells (parental)) was 100.5 and the “Cell viability in kinase inhibitor library screening, A375 Parental, 1μΜ” value (A375 cells (parental); 1μΜ) was 112.2. The “Cell viability in kinase inhibitor library screening, A375 GP, 1μΜ” value ([3]; 1μΜ, 72 h) was 104.5, the “Cell viability in kinase inhibitor library screening, A375 XP, 1μΜ” value ([4]; 1μΜ, 72 h) was 106.2 and the “Cell viability in kinase inhibitor library screening, A375 XP, 10μΜ” value ([4]; 10μΜ, 72 h) was 109.5. For the same compound, the “Cell viability in kinase inhibitor library screening, IGR37 Parental, 1μΜ” value (IGR37 cells (parental); 1μΜ, 72 h, in %) was 108.7, the “Cell viability in kinase inhibitor library screening, IGR37 Parental, 10μΜ” value (IGR37 cells (parental); 10μΜ, 72 h, in %) was 106.4 and the Cell viability in kinase inhibitor library screening, IGR37 GP, 10μΜ ([5]; 10μΜ, 72 h) was 97%. For the same compound, the “Cell viability in kinase inhibitor library screening, IGR37 GP, 1μΜ” value ([5]; 1μΜ, 72 h, in %) was 107.1.
With `N#CC1(c2ccc(NC(=O)c3cccnc3NCc3ccncc3)cc2)CCCC1` [Apatinib (YN968D1)] the “cell viability (kinase inhibitor library screening)” value (501Mel cells (parental); 1μΜ, in %) was 103.5, the “cell viability (kinase inhibitor library screening)” value (501Mel cells (parental); 10μΜ, in %) was 103.9 and the “cell viability (kinase inhibitor library screening)” value ([1]; 1μΜ, in %) was 102.7. The “cell viability (kinase inhibitor library screening)” value ([1]; 10μΜ, in %) was 98.0, the “cell viability (kinase inhibitor library screening)” value ([2]; 1μΜ, in %) was 112.2 and the “cell viability (kinase inhibitor library screening)” value ([2]; 10μΜ, in %) was 105.3. For the same compound, the “cell viability (kinase inhibitor library screening)” value ([3]; 1μΜ) was 97.5, the “cell viability (kinase inhibitor library screening)” value ([3]; 10μΜ) was 98.6 and the “cell viability (kinase inhibitor library screening)” value ([4]; 1μΜ, in %) was 103.9. The “cell viability (kinase inhibitor library screening)” value ([4]; 10μΜ, in %) was 105.3, the “cell viability (kinase inhibitor library screening)” value (IGR37 cells (parental); 1μΜ, in %) was 103.0 and the “cell viability (kinase inhibitor library screening)” value (IGR37 cells (parental); 10μΜ, in %) was 105.2. The “cell viability (kinase inhibitor library screening)” value ([5]; 1μΜ, in %) was 94.0, the “cell viability (kinase inhibitor library screening)” value ([5]; 10μΜ, in %) was 95.0 and the “cell viability (kinase inhibitor library screening)” value ([6]; 1μΜ, in %) was 105.2. The “cell viability (kinase inhibitor library screening)” value ([6]; 10μΜ, in %) was 86.2.
With `OCCn1cc(-c2cnc3nnn(Cc4ccc5ncccc5c4)c3n2)cn1` [PF-04217903] the “cell viability (kinase inhibitor library screening)” value (501Mel cells (parental); 1μΜ, 72 h) was 97.4%, the “cell viability (kinase inhibitor library screening)” value (501Mel cells (parental); 10μΜ, 72 h) was 99.2% and the “cell viability (kinase inhibitor library screening)” value ([1]; 1μΜ, 72 h) was 89.0%. For the same compound, the “cell viability (kinase inhibitor library screening)” value ([1]; 10μΜ, 72 h) was 82.3%, the “cell viability (kinase inhibitor library screening)” value ([2]; 1μΜ, 72 h) was 68.7% and the “cell viability (kinase inhibitor library screening)” value ([2]; 10μΜ, 72 h) was 68.6%. The “cell viability (kinase inhibitor library screening)” value (A375 cells (parental); 1μΜ) was 111.4%, the “cell viability (kinase inhibitor library screening)” value ([4]; 1μΜ, 72 h) was 107.0% and the “cell viability (kinase inhibitor library screening)” value ([4]; 10μΜ, 72 h) was 110.9%. For the same compound, the “cell viability (kinase inhibitor library screening)” value (IGR37 cells (parental); 1μΜ, 72 h) was 119.0%, the “cell viability (kinase inhibitor library screening)” value (IGR37 cells (parental); 10μΜ, 72 h) was 104.5% and the “cell viability (kinase inhibitor library screening)” value ([5]; 1μΜ, 72 h) was 105.7%. For the same compound, the “cell viability (kinase inhibitor library screening)” value ([5]; 10μΜ, 72 h) was 91.4% and the “cell viability (kinase inhibitor library screening)” value ([6]; 10μΜ, 72 h) was 67.3%.
With `CNC(=O)c1ccc(C)c(-n2c(C)cc(OCc3ccc(F)cc3F)c(Br)c2=O)c1` [PH-797804] the “Cell viability in kinase inhibitor library screening, 501Mel Parental, 1μΜ” value (501Mel cells (parental); 1μΜ, 72 h, in %) was 98.2, the “Cell viability in kinase inhibitor library screening, 501Mel GP, 1μΜ” value ([1]; 1μΜ, 72 h, in %) was 106.6 and the “Cell viability in kinase inhibitor library screening, 501Mel GP, 10μΜ” value ([1]; 10μΜ, 72 h, in %) was 91.3. For the same compound, the “Cell viability in kinase inhibitor library screening, 501Mel XP, 1μΜ” value ([2]; 1μΜ, 72 h, in %) was 90.4, the “Cell viability in kinase inhibitor library screening, 501Mel XP, 10μΜ” value ([2]; 10μΜ, 72 h, in %) was 84.3 and the “Cell viability in kinase inhibitor library screening, A375 Parental, 10μΜ” value (A375 cells (parental)) was 84.4. For the same compound, the “Cell viability in kinase inhibitor library screening, A375 Parental, 1μΜ” value (A375 cells (parental); 1μΜ) was 109.2, the “Cell viability in kinase inhibitor library screening, A375 GP, 1μΜ” value ([3]; 1μΜ, 72 h) was 103.3 and the “Cell viability in kinase inhibitor library screening, A375 GP, 10μΜ” value ([3]; 10μΜ, 72 h) was 87.3. For the same compound, the “Cell viability in kinase inhibitor library screening, A375 XP, 10μΜ” value ([4]; 10μΜ, 72 h) was 95.8, the “Cell viability in kinase inhibitor library screening, IGR37 Parental, 1μΜ” value (IGR37 cells (parental); 1μΜ, 72 h, in %) was 103.0 and the Cell viability in kinase inhibitor library screening, IGR37 XP, 10μΜ ([6]; 10μΜ, 72 h) was 74.4%. For the same compound, the “Cell viability in kinase inhibitor library screening, IGR37 XP, 1μΜ” value ([6]; 1μΜ, 72 h, in %) was 104.2.
For `CCn1c(N)c(C(=O)NC)c(=O)c2ccc(C#C[C@@](C)(O)COC)nc21` [SAR131675], the “cell viability (kinase inhibitor library screening)” value (501Mel cells (parental); 1μΜ, in %) was 96.4, the “cell viability (kinase inhibitor library screening)” value (501Mel cells (parental); 10μΜ, in %) was 92.6 and the “cell viability (kinase inhibitor library screening)” value ([1]; 1μΜ, in %) was 103.5. For the same compound, the “cell viability (kinase inhibitor library screening)” value ([1]; 10μΜ, in %) was 90.9, the “cell viability (kinase inhibitor library screening)” value ([2]; 1μΜ, in %) was 103.7 and the “cell viability (kinase inhibitor library screening)” value ([2]; 10μΜ, in %) was 85.3. For the same compound, the “cell viability (kinase inhibitor library screening)” value ([3]; 1μΜ) was 103.2, the “cell viability (kinase inhibitor library screening)” value ([3]; 10μΜ) was 87.6 and the “cell viability (kinase inhibitor library screening)” value ([4]; 1μΜ, in %) was 108.8. The “cell viability (kinase inhibitor library screening)” value (IGR37 cells (parental); 1μΜ, in %) was 100.2, the “cell viability (kinase inhibitor library screening)” value (IGR37 cells (parental); 10μΜ, in %) was 99.7 and the “cell viability (kinase inhibitor library screening)” value ([5]; 1μΜ, in %) was 93.4. For the same compound, the “cell viability (kinase inhibitor library screening)” value ([5]; 10μΜ, in %) was 96.6, the “cell viability (kinase inhibitor library screening)” value ([6]; 1μΜ, in %) was 94.6 and the “cell viability (kinase inhibitor library screening)” value ([6]; 10μΜ, in %) was 71.4.
